Data from ChEMBL document CHEMBL1201862, “PubChem BioAssay data set” (2004).
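A five-concentration, 48-hour dose response in 96-well plates underlies each endpoint, interpolated linearly between surrounding concentrations. Abbreviation: GI50, concentration required for 50% inhibition of growth.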 Activity calls are given as the source filed them. No stated cut-off is given here; in the data, active = GI50 up to about 1.1 µM and inactive = higher.

Experiments:
Experiment in all cases: NCI tumour cell line growth inhibition, 48 h
SNB-19 = test system: SNB-19
MDA-MB-435 = test system: MDA-MB-435
SR = test system: SR
U-251 = test system: U-251
786-0 = test system: 786-0
KM12 = test system: KM12
Hs-578T = test system: Hs-578T
COLO 205 = test system: COLO 205
RPMI-8226 = test system: RPMI-8226
UACC-62 = test system: UACC-62
OVCAR-4 = test system: OVCAR-4
NCI-H23 = test system: NCI-H23
SW-620 = test system: SW-620
K562 = test system: K562
ACHN = test system: ACHN
M14 = test system: M14
UO-31 = test system: UO-31
UACC-257 = test system: UACC-257
SK-MEL-28 = test system: SK-MEL-28
HCC 2998 = test system: HCC 2998
SN12C = test system: SN12C
DU-145 = test system: DU-145
SF-295 = test system: SF-295
HCT-116 = test system: HCT-116
RXF 393 = test system: RXF 393
PC-3 = test system: PC-3
SK-MEL-5 = test system: SK-MEL-5
NCI-H460 = test system: NCI-H460
MOLT-4 = test system: MOLT-4
CCRF-CEM = test system: CCRF-CEM
EKVX = test system: EKVX
HCT-15 = test system: HCT-15
A549 = test system: A549
SF-268 = test system: SF-268
CAKI-1 = test system: CAKI-1
LOX IMVI = test system: LOX IMVI
MDA-N = test system: MDA-N
IGROV-1 = test system: IGROV-1
A498 = test system: A498
OVCAR-8 = test system: OVCAR-8
TK-10 = test system: TK-10
HT-29 = test system: HT-29
HOP-62 = test system: HOP-62
HL-60 = test system: HL-60
MDA-MB-231 = test system: MDA-MB-231
SK-OV-3 = test system: SK-OV-3
MCF7 = test system: MCF7
SNB-75 = test system: SNB-75
HOP-92 = test system: HOP-92
T47D = test system: T47D
Malme-3M = test system: Malme-3M
NCI-H226 = test system: NCI-H226
SF-539 = test system: SF-539
NCI/ADR-RES = test system: NCI/ADR-RES
OVCAR-5 = test system: OVCAR-5

For `O=c1c(Nc2ccccc2)cn(CCOc2ccc(Cl)cc2)c(=O)n1CCOc1ccc(Cl)cc1`, the GI50 (SNB-19) was > 100 µM (inactive), the GI50 (MDA-MB-435) was 39.1 µM (inactive) and the GI50 (SR) was 96.2 µM (inactive). The GI50 (U-251) was > 100 µM (inactive), the GI50 (786-0) was 28.1 µM (inactive) and the GI50 (KM12) was > 100 µM (inactive). The GI50 (Hs-578T) was 60 µM (inactive), the GI50 (COLO 205) was > 100 µM (inactive) and the GI50 (RPMI-8226) was > 100 µM (inactive). For the same compound, the GI50 (UACC-62) was > 100 µM (inactive), the GI50 (OVCAR-4) was 26.7 µM (inactive) and the GI50 (NCI-H23) was > 100 µM (inactive). For the same compound, the GI50 (SW-620) was > 100 µM (inactive), the GI50 (K562) was > 100 µM (inactive) and the GI50 (ACHN) was > 100 µM (inactive). For the same compound, the GI50 (M14) was 60.3 µM (inactive), the GI50 (UO-31) was 51.9 µM (inactive) and the GI50 (UACC-257) was > 100 µM (inactive). The GI50 (SK-MEL-28) was > 100 µM (inactive), the GI50 (HCC 2998) was 22.2 µM (inactive) and the GI50 (SN12C) was > 100 µM (inactive). For the same compound, the GI50 (DU-145) was 75.2 µM (inactive), the GI50 (SF-295) was > 100 µM (inactive) and the GI50 (HCT-116) was > 100 µM (inactive). For the same compound, the GI50 (RXF 393) was 36.4 µM (inactive), the GI50 (PC-3) was 41.1 µM (inactive) and the GI50 (SK-MEL-5) was 75.2 µM (inactive). For the same compound, the GI50 (NCI-H460) was > 100 µM (inactive), the GI50 (MOLT-4) was > 100 µM (inactive) and the GI50 (CCRF-CEM) was 64 µM (inactive). For the same compound, the GI50 (EKVX) was 55.7 µM (inactive), the GI50 (HCT-15) was over 100 µM and the GI50 (A549) was > 100 µM (inactive). For the same compound, the GI50 (SF-268) was 89.9 µM (inactive), the GI50 (CAKI-1) was > 100 µM (inactive) and the GI50 (LOX IMVI) was > 100 µM (inactive). For the same compound, the GI50 (MDA-N) was > 100 µM (inactive), the GI50 (IGROV-1) was > 100 µM (inactive) and the GI50 (A498) was > 100 µM (inactive).

For `CCCC(=O)OC1=C(c2ccccc2)Sc2ccccc2-n2cccc21`, the GI50 (OVCAR-8) was > 10 µM (inactive), the GI50 (MDA-MB-435) was 8.57 µM (inactive) and the GI50 (SR) was > 10 µM (inactive). The GI50 (TK-10) was > 10 µM (inactive), the GI50 (HT-29) was > 10 µM (inactive) and the GI50 (786-0) was > 10 µM (inactive). For the same compound, the GI50 (HOP-62) was > 10 µM (inactive), the GI50 (KM12) was > 10 µM (inactive) and the GI50 (HL-60) was > 10 µM (inactive). The GI50 (COLO 205) was > 10 µM (inactive), the GI50 (RPMI-8226) was > 10 µM (inactive) and the GI50 (UACC-62) was > 10 µM (inactive). The GI50 (MDA-MB-231) was > 10 µM (inactive), the GI50 (OVCAR-4) was > 10 µM (inactive) and the GI50 (SK-OV-3) was > 10 µM (inactive). For the same compound, the GI50 (NCI-H23) was > 10 µM (inactive), the GI50 (SW-620) was > 10 µM (inactive) and the GI50 (K562) was > 10 µM (inactive). The GI50 (MCF7) was > 10 µM (inactive), the GI50 (M14) was > 10 µM (inactive) and the GI50 (SNB-75) was > 10 µM (inactive). The GI50 (UACC-257) was > 10 µM (inactive), the GI50 (SK-MEL-28) was > 10 µM (inactive) and the GI50 (HCC 2998) was > 10 µM (inactive). The GI50 (SN12C) was > 10 µM (inactive), the GI50 (DU-145) was > 10 µM (inactive) and the GI50 (SF-295) was > 10 µM (inactive). For the same compound, the GI50 (RXF 393) was > 10 µM (inactive), the GI50 (PC-3) was > 10 µM (inactive) and the GI50 (SK-MEL-5) was > 10 µM (inactive). The GI50 (MOLT-4) was > 10 µM (inactive), the GI50 (HOP-92) was > 10 µM (inactive) and the GI50 (T47D) was > 10 µM (inactive). The GI50 (CCRF-CEM) was > 10 µM (inactive), the GI50 (EKVX) was > 10 µM (inactive) and the GI50 (HCT-15) was over 10 µM. The GI50 (Malme-3M) was > 10 µM (inactive), the GI50 (A549) was > 10 µM (inactive) and the GI50 (SF-268) was > 10 µM (inactive). For the same compound, the GI50 (CAKI-1) was > 10 µM (inactive), the GI50 (LOX IMVI) was > 10 µM (inactive) and the GI50 (MDA-N) was > 10 µM (inactive). For the same compound, the GI50 (IGROV-1) was > 10 µM (inactive).

In the case of `C=CCC(C)C12CCNC(Cc3ccc(O)cc31)C2C` (centres undefined), the GI50 (OVCAR-8) is reported as > 100 µM (inactive), the GI50 (SNB-19) is reported as > 100 µM (inactive) and the GI50 (MDA-MB-435) is reported as > 100 µM (inactive). For the same compound, the GI50 (SR) was 82.4 µM (inactive), the GI50 (TK-10) was > 100 µM (inactive) and the GI50 (U-251) was > 100 µM (inactive). The GI50 (HT-29) was 79.1 µM (inactive), the GI50 (786-0) was > 100 µM (inactive) and the GI50 (HOP-62) was > 100 µM (inactive). The GI50 (KM12) was > 100 µM (inactive), the GI50 (HL-60) was > 10 µM (inactive) and the GI50 (Hs-578T) was 82.8 µM (inactive). For the same compound, the GI50 (NCI-H226) was > 100 µM (inactive), the GI50 (SF-539) was > 100 µM (inactive) and the GI50 (NCI/ADR-RES) was > 100 µM (inactive). The GI50 (COLO 205) was > 100 µM (inactive), the GI50 (RPMI-8226) was > 100 µM (inactive) and the GI50 (UACC-62) was > 100 µM (inactive). For the same compound, the GI50 (MDA-MB-231) was > 100 µM (inactive), the GI50 (OVCAR-4) was > 100 µM (inactive) and the GI50 (SK-OV-3) was > 100 µM (inactive). For the same compound, the GI50 (NCI-H23) was > 100 µM (inactive), the GI50 (SW-620) was > 100 µM (inactive) and the GI50 (K562) was 41.3 µM (inactive). The GI50 (ACHN) was > 100 µM (inactive), the GI50 (MCF7) was > 100 µM (inactive) and the GI50 (M14) was 64.4 µM (inactive). The GI50 (SNB-75) was > 100 µM (inactive), the GI50 (UO-31) was 38.6 µM (inactive) and the GI50 (UACC-257) was 66.2 µM (inactive). The GI50 (SK-MEL-28) was > 100 µM (inactive), the GI50 (OVCAR-5) was > 100 µM (inactive) and the GI50 (HCC 2998) was 51.1 µM (inactive). For the same compound, the GI50 (SN12C) was > 100 µM (inactive), the GI50 (DU-145) was > 100 µM (inactive) and the GI50 (SF-295) was > 100 µM (inactive). The GI50 (HCT-116) was > 100 µM (inactive), the GI50 (RXF 393) was > 100 µM (inactive) and the GI50 (SK-MEL-5) was > 100 µM (inactive). The GI50 (NCI-H460) was 89.9 µM (inactive), the GI50 (MOLT-4) was 84.5 µM (inactive) and the GI50 (HOP-92) was 56.1 µM (inactive). For the same compound, the GI50 (T47D) was > 100 µM (inactive), the GI50 (CCRF-CEM) was > 100 µM (inactive) and the GI50 (EKVX) was > 100 µM (inactive). The GI50 (HCT-15) was over 100 µM, the GI50 (Malme-3M) was > 100 µM (inactive) and the GI50 (A549) was > 100 µM (inactive). For the same compound, the GI50 (SF-268) was > 100 µM (inactive), the GI50 (LOX IMVI) was > 100 µM (inactive) and the GI50 (IGROV-1) was > 100 µM (inactive). For the same compound, the GI50 (A498) was 43.6 µM (inactive).

With `CC(=O)O[C@H]1C(=O)[C@@]2(C)C(C(OC(=O)c3ccccc3)[C@]3(O)CC(OC(=O)[C@H](OC(=O)CCC(=O)O)C(NC(=O)c4ccccc4)c4ccccc4)C(C)=C1C3(C)C)C1(OC(C)=O)COC1C[C@@H]2OC(=O)CCC(=O)O` (some centres undefined) the GI50 (OVCAR-4) was > 79.4 µM (inactive), the GI50 (UO-31) was 83.9 µM (inactive) and the GI50 (SK-MEL-28) was 5.6 µM (inactive). For the same compound, the GI50 (T47D) was 0.822 µM (active) and the GI50 (Malme-3M) was 11.6 µM (inactive).
